Tested on: cell proliferation
Format: cell-based

Arsenious acid
IC50: 10 µM

trimethylarsineoxide [TMAO]
IC50: > 6000 µM
